Laboratory results from ChEMBL document CHEMBL1146337, “Efficient synthesis of substituted 7-methyl-2H,5H-pyrano[4,3-b]pyran-5-ones and evaluation of their in vitro antiproliferative/cytotoxic activities” (Bioorg Med Chem Lett, 2007).
Activity calls are given as the source filed them. The calls are words filed in the database; no cut-off is given here.

Legend:
SH-SY5Y [1] = test: Antiproliferative activity against human SH-SY5Y cells at 50 ug/mL after 24 hrs; format: functional
SH-SY5Y [2] = test: Antiproliferative activity against human SH-SY5Y cells at 25 ug/mL after 24 hrs; format: functional
SH-SY5Y [3] = test: Antiproliferative activity against human SH-SY5Y cells at 12.5 ug/mL after 24 hrs; format: functional
SH-SY5Y [4] = test: Cytotoxicity against human SH-SY5Y cells after 24 hrs; format: functional, cell-based
SH-SY5Y [5] = test: Antiproliferative activity against human SH-SY5Y cells at 6.25 ug/mL after 24 hrs; format: functional
SH-SY5Y [6] = test: Antiproliferative activity against human SH-SY5Y cells at 3.13 ug/mL after 24 hrs; format: functional
SH-SY5Y [7] = test: Antiproliferative activity against human SH-SY5Y cells at 1.56 ug/mL after 24 hrs; format: functional
IPC = test: Necrotic effect in human IPC cells at 12.5 ug/mL after 3 hrs; format: functional, cell-based

| SMILES | inhibition at 50 µg/mL (SH-SY5Y [1]) | inhibition at 25 µg/mL (SH-SY5Y [2]) | inhibition at 12.5 µg/mL (SH-SY5Y [3]) | IC50 (SH-SY5Y [4]) | inhibition at 6.25 µg/mL (SH-SY5Y [5]) | inhibition at 3.13 µg/mL (SH-SY5Y [6]) | inhibition at 1.56 µg/mL (SH-SY5Y [7]) | Activity (IPC) |
| --- | --- | --- | --- | --- | --- | --- | --- | --- |
| CCC1C=Cc2c(cc(C)oc2=O)O1 (configuration not stated) | 43.7% | 4.95% | 3.62% | > 200 µM |  |  |  |  |
| Cc1cc2c(c(=O)o1)C=C1C(C)(C)CC=CC1(C)O2 (configuration not stated) | 84.8% | 79.8% | 51.9% | 47 µM | 16.9% | 6.01% |  |  |
| Cc1cc2c(c(=O)o1)C=C1C(C[C@H]3C[C@@H]1C3(C)C)O2 (some centres not stated) | 84.1% | 67.8% | 24.4% | 70 µM |  |  |  |  |
| Cc1cc2c(c(=O)o1)C=C(c1ccccc1)C(CC(C)C)O2 (configuration not stated) | 81.7% | 45.7% | 14.6% | 93 µM |  |  |  |  |
| Cc1cc2c(c(=O)o1)C=C(C(C)C)C(CC(C)C)O2 (configuration not stated) | 95.7% | 96.6% | 94% | 6.7 µM | 93.8% | 87.5% | 38.5% | inactive |
| Cc1cc2c(c(=O)o1)C=C1CCCC1O2 (configuration not stated) | 51.2% | 14.9% | 19.3% | 252 µM |  |  |  |  |
| CC1=Cc2c(cc(C)oc2=O)OC1c1ccco1 (configuration not stated) | 64.4% | 64.3% | 50.6% | 49 µM | 30.9% | 21.6% |  |  |
| CC(C)=CCCC1(C)C=Cc2c(cc(C)oc2=O)O1 (configuration not stated) | 37.4% | 30.4% |  | > 200 µM |  |  |  |  |
| Cc1cc2c(c(=O)o1)C=C1CCCCC1(C)O2 (configuration not stated) | 60.6% | 11.4% | 1.18% | 185 µM |  |  |  |  |
| Cc1cc2c(c(=O)o1)C=C1C(C)(C)CCCC1(C)O2 (configuration not stated) | 75.1% | 74.2% | 72.9% | 31 µM | 18.4% | 1.11% | 8.34% |  |
| CCCCCCCCC1C=Cc2c(cc(C)oc2=O)O1 (configuration not stated) | 83.3% | 60.1% | 21.1% | 76 µM |  |  |  |  |
| CC1=Cc2c(cc(C)oc2=O)OC1C (configuration not stated) | 53.8% | 43.8% |  | 200 µM |  |  |  |  |
